Here are results for three molecules from US20170107407A1, “ADHESIVE COMPOSITION AND POLARIZING PLATE COMPRISING SAME” (DONGWOO FINE-CHEM CO., LTD., priority 2014, published 2017).

This series can be described thus: Evaluation of solubility in methyl ethyl ketone. The note with it: 1 g compound in 100 g methyl ethyl ketone, shaken 1 hour, left 24 hours at room temperature, visual.

Experimental: Each compound (1 g) listed in Table 1 and methyl ethyl ketone (MEK, 100 g) were added to a 250 ml bottle and covered with a cap to inhibit the volatilization of the solvent.

Consider `CCOCCOCCOCC(=O)[O-].[Li+]` [Formula A], for which the Solubility result is recorded as “∘”.

Consider `CCOCCOCCOCC(=O)[O-].[Na+]` [Formula B], for which the Solubility entry was “∘”. The value for `CCCCOCCOCC(=O)[O-].[Na+]` [Formula C] was “∘”.
